Source: patent publication US11884683B2, “Tricyclic heterocycle compounds useful as HIV integrase inhibitors” (Merck Sharp & Dohme LLC, priority 2018, dated 2024)

The compounds below were run on HIV-1 (H9/IIIB strain) (assay: Multiple round HIV-1 infection assay in MT4-GFP cells (wild type cell assay, Viking)). Details: 0% NHS condition; MT4-GFP cells infected with HIV-1 H9/IIIB; inhibition of reproductive ratio R0, ~48 h and ~72 h post-infection; read-out: WILD TYPE CELL ASSAY Viking IP (0% NHS).
Type: cell-based
Protocol: Assessing Antiviral Potency in a Multiple Round HIV-1 Infection Assay
The antiviral activity of the Examples herein was assessed in an assay that measures the rate of replication of HIV in cell culture, and performed according to the following procedure. HIV-1 replication was monitored using MT4-gag-GFP clone D3 (hereafter designated MT4-GFP), which are MT-4 cells modified to harbor a GFP reporter gene, the expression of which is dependent on the HIV-1 expressed proteins tat and rev. Productive infection of an MT4-GFP cell with HIV-1 results in GFP expression approximately 24 h post-infection. MT4-GFP cells were maintained at 37° C./5% CO2/90% relative humidity in RPMI 1640 supplemented with 10% fetal bovine serum, 100 U/ml penicillin/streptomycin, and 400 μg/ml G418 to maintain the reporter gene. For infections, MT4-GFP cells were placed in the same medium lacking G418 and infected overnight with HIV-1 (H9/IIIB strain) virus at an approximate multiplicity of infection of 0.01 in the same incubation conditions. Cells were then washed and re-suspended in either RPMI 1640 at 2×10^5 cells/mL (0% NHS condition) or 100% normal human serum (NHS) at 2×10^5 cells/mL (100% NHS condition). Compound plates were prepared by dispensing compounds dissolved in DMSO into wells of 384 well poly-D-lysine-coated plates (0.2 μl/well) using an ECHO acoustic dispenser. Each compound was tested in a 10-point serial 3-fold dilution (typical final concentrations: 1050 nM-0.05 nM for 0% NHS condition or […]-2.13 nM for 100% NHS condition). Controls included no inhibitor (DMSO only) and a combination of three antiviral agents (efavirenz, indinavir, an in-house integrase strand transfer inhibitor at final concentrations of […] each). Cells were added ([…]) to compound plates and the infected cells were maintained at 37° C./5% CO2/90% relative humidity.
Infected cells were quantified at two time points, ˜48 h and ˜72 h post-infection, by counting the number of green cells in each well using an Acumen eX3 scanner. The increase in the number of green cells over ˜24 h period gives the reproductive ratio, RO, which is typically 5-15 and has been shown experimentally to be in logarithmic phase (data not shown). Inhibition of R0 is calculated for each well, and IC50s determined by non-linear 4-parameter curve fitting.

Compound | IC50 [nM]
CCC1N(C)C(=O)c2c(O)c(=O)c(C(=O)NCc3c(F)ccc(Cl)c3F)c3n2N1CC3O (single isomer, unassigned) [Compound 26] | 3.4
CCC1N(C)C(=O)c2c(O)c(=O)c(C(=O)NCc3c(F)cc(F)cc3F)c3n2N1CC3O (single isomer, unassigned) [Compound 34] | 2.8
CCN1C(=O)c2c(O)c(=O)c(C(=O)NCc3c(F)ccc(Cl)c3F)c3n2N(CC3O)C1C (single isomer, unassigned) [Compound 70] | 1.8
CCN1C(=O)c2c(O)c(=O)c(C(=O)NCc3ccc(C(F)F)cc3)c3n2N(CC3O)C1C (single isomer, unassigned) [Compound 74] | 66
CCN1C(=O)c2c(O)c(=O)c(C(=O)NCc3ccc(C(F)(F)F)cc3)c3n2N(CC3O)C1C (single isomer, unassigned) [Compound 77] | 258
CCN1C(=O)c2c(O)c(=O)c(C(=O)NCc3ccc(C(F)(F)F)cc3)c3n2N(CC3O)C1C (single isomer, unassigned) [Compound 78] | 87
CCN1C(=O)c2c(O)c(=O)c(C(=O)NCc3c(F)ccc(F)c3F)c3n2N(CC3O)C1C (single isomer, unassigned) [Compound 82] | 2.2
CCN1C(=O)c2c(O)c(=O)c(C(=O)NCc3ccc(F)cc3)c3n2N(CC3O)C1C (single isomer, unassigned) [Compound 86] | 1.3
CN1C(=O)c2c(O)c(=O)c(C(=O)NCc3c(F)ccc(Cl)c3F)c3n2N(CC3O)C12CCOC2 (single isomer, unassigned) [Compound 116] | 3.1
CN1CN2CC(O)c3c(C(=O)NCc4ccc(F)cc4)c(=O)c(O)c(n32)C1=O (stereo not drawn) [Compound 6] | 3
CN1CN2CC(O)c3c(C(=O)NCc4c(F)ccc(Cl)c4F)c(=O)c(O)c(n32)C1=O (stereo not drawn) [Compound 8] | 1.9
CCC1N(C)C(=O)c2c(O)c(=O)c(C(=O)NCc3c(F)ccc(Cl)c3F)c3n2N1CC3O (stereo not drawn) [Compound 28] | 3.3
COCCN1CN2CC(O)c3c(C(=O)NCc4ccc(F)c(Cl)c4F)c(=O)c(O)c(n32)C1=O (stereo not drawn) [Compound 40] | 2.1
COCCN1CN2CC(O)c3c(C(=O)NCc4cccc(Cl)c4F)c(=O)c(O)c(n32)C1=O (stereo not drawn) [Compound 42] | 1.9
COCCN1CN2CC(O)c3c(C(=O)NCc4c(F)ccc(Cl)c4F)c(=O)c(O)c(n32)C1=O (stereo not drawn) [Compound 44] | 3.1
COCCN1CN2CC(O)c3c(C(=O)NCc4c(F)cc(F)cc4F)c(=O)c(O)c(n32)C1=O (stereo not drawn) [Compound 46] | 3.7

Second part, the compound after the results:

IC50 [nM] | Compound
1.4 | CC1N(C)C(=O)c2c(O)c(=O)c(C(=O)NCc3ccc(F)cc3F)c3n2N1CC3O (single isomer, unassigned) [Compound 14]
1.6 | CC1N(C)C(=O)c2c(O)c(=O)c(C(=O)NCc3c(F)cc(F)cc3F)c3n2N1CC3O (single isomer, unassigned) [Compound 18]
2.3 | CC1N(C)C(=O)c2c(O)c(=O)c(C(=O)NCc3c(F)ccc(F)c3F)c3n2N1CC3O (single isomer, unassigned) [Compound 22]
0.76 | CCC1N(C)C(=O)c2c(O)c(=O)c(C(=O)NCc3ccc(F)cc3F)c3n2N1CC3O (single isomer, unassigned) [Compound 29]
1.6 | CCC1N(C)C(=O)c2c(O)c(=O)c(C(=O)NCc3ccc(F)cc3F)c3n2N1CC3O (single isomer, unassigned) [Compound 30]
1.9 | CCN1C(=O)c2c(O)c(=O)c(C(=O)NCc3ccc(F)cc3F)c3n2N(CC3O)C1C (single isomer, unassigned) [Compound 90]
1.7 | CN1C(=O)c2c(O)c(=O)c(C(=O)NCc3ccc(F)cc3F)c3n2N(CC3O)C12CCOC2 (single isomer, unassigned) [Compound 112]
3.5 | CN1CN2CC(O)c3c(C(=O)NCc4ccc(F)cc4F)c(=O)c(O)c(n32)C1=O (stereo not drawn) [Compound 4]
1.9 | CC1N(C)C(=O)c2c(O)c(=O)c(C(=O)NCc3ccc(F)cc3F)c3n2N1CC3O (stereo not drawn) [Compound 16]
1.7 | CC1N(C)C(=O)c2c(O)c(=O)c(C(=O)NCc3c(F)cc(F)cc3F)c3n2N1CC3O (stereo not drawn) [Compound 20]
1.5 | CC1N(C)C(=O)c2c(O)c(=O)c(C(=O)NCc3c(F)ccc(F)c3F)c3n2N1CC3O (stereo not drawn) [Compound 24]
2.5 | CCC1N(C)C(=O)c2c(O)c(=O)c(C(=O)NCc3ccc(F)cc3F)c3n2N1CC3O (stereo not drawn) [Compound 32]
1.5 | CCC1N(C)C(=O)c2c(O)c(=O)c(C(=O)NCc3c(F)cc(F)cc3F)c3n2N1CC3O (stereo not drawn) [Compound 36]

Same assay, conditions: Human immunodeficiency virus 1, IIIB, 0% NHS condition; MT4-GFP cells infected with HIV-1 H9/IIIB; inhibition of reproductive ratio R0, ~48 h and ~72 h post-infection; read-out: WILD TYPE CELL ASSAY Viking IP (0% NHS)

Compound | IC50 [nM]
CCC1N(C)C(=O)c2c(O)c(=O)c(C(=O)NCc3c(F)ccc(Cl)c3F)c3n2N1CC3O (single isomer, unassigned) [Compound 25] | 2
CCN1C(=O)c2c(O)c(=O)c(C(=O)NCc3c(F)ccc(Cl)c3F)c3n2N(CC3O)C1C (single isomer, unassigned) [Compound 69] | 1.9
CCN1C(=O)c2c(O)c(=O)c(C(=O)NCc3ccc(C(F)F)cc3)c3n2N(CC3O)C1C (single isomer, unassigned) [Compound 73] | 80
CCN1C(=O)c2c(O)c(=O)c(C(=O)NCc3c(F)ccc(F)c3F)c3n2N(CC3O)C1C (single isomer, unassigned) [Compound 81] | 2.8
CCN1C(=O)c2c(O)c(=O)c(C(=O)NCc3ccc(F)cc3)c3n2N(CC3O)C1C (single isomer, unassigned) [Compound 85] | 2.6
CN1C(=O)c2c(O)c(=O)c(C(=O)NCc3c(F)ccc(Cl)c3F)c3n2N(CC3O)C12CCOC2 (single isomer, unassigned) [Compound 115] | 2
CN1CN2CC(O)c3c(C(=O)NCc4ccc(F)cc4)c(=O)c(O)c(n32)C1=O (stereo not drawn) [Compound 5] | 3.5
CN1CN2CC(O)c3c(C(=O)NCc4c(F)ccc(Cl)c4F)c(=O)c(O)c(n32)C1=O (stereo not drawn) [Compound 7] | 1.6
CCC1N(C)C(=O)c2c(O)c(=O)c(C(=O)NCc3c(F)ccc(Cl)c3F)c3n2N1CC3O (stereo not drawn) [Compound 27] | 2.9
COCCN1CN2CC(O)c3c(C(=O)NCc4ccc(F)c(Cl)c4F)c(=O)c(O)c(n32)C1=O (stereo not drawn) [Compound 39] | 2.2
COCCN1CN2CC(O)c3c(C(=O)NCc4cccc(Cl)c4F)c(=O)c(O)c(n32)C1=O (stereo not drawn) [Compound 41] | 2.8
COCCN1CN2CC(O)c3c(C(=O)NCc4c(F)ccc(Cl)c4F)c(=O)c(O)c(n32)C1=O (stereo not drawn) [Compound 43] | 3.4
COCCN1CN2CC(O)c3c(C(=O)NCc4c(F)cc(F)cc4F)c(=O)c(O)c(n32)C1=O (stereo not drawn) [Compound 45] | 2.5

Second part, the compound after the results:

IC50 [nM] | Compound
1.7 | CC1N(C)C(=O)c2c(O)c(=O)c(C(=O)NCc3ccc(F)cc3F)c3n2N1CC3O (single isomer, unassigned) [Compound 13]
1.5 | CC1N(C)C(=O)c2c(O)c(=O)c(C(=O)NCc3c(F)cc(F)cc3F)c3n2N1CC3O (single isomer, unassigned) [Compound 17]
1.4 | CC1N(C)C(=O)c2c(O)c(=O)c(C(=O)NCc3c(F)ccc(F)c3F)c3n2N1CC3O (single isomer, unassigned) [Compound 21]
1.4 | CCC1N(C)C(=O)c2c(O)c(=O)c(C(=O)NCc3c(F)cc(F)cc3F)c3n2N1CC3O (single isomer, unassigned) [Compound 33]
1.9 | CCN1C(=O)c2c(O)c(=O)c(C(=O)NCc3ccc(F)cc3F)c3n2N(CC3O)C1C (single isomer, unassigned) [Compound 89]
2.1 | CN1C(=O)c2c(O)c(=O)c(C(=O)NCc3ccc(F)cc3F)c3n2N(CC3O)C12CCOC2 (single isomer, unassigned) [Compound 111]
3.2 | CN1CN2CC(O)c3c(C(=O)NCc4ccc(F)cc4F)c(=O)c(O)c(n32)C1=O (stereo not drawn) [Compound 3]
2.6 | CC1N(C)C(=O)c2c(O)c(=O)c(C(=O)NCc3ccc(F)cc3F)c3n2N1CC3O (stereo not drawn) [Compound 15]
2.7 | CC1N(C)C(=O)c2c(O)c(=O)c(C(=O)NCc3c(F)cc(F)cc3F)c3n2N1CC3O (stereo not drawn) [Compound 19]
2.3 | CC1N(C)C(=O)c2c(O)c(=O)c(C(=O)NCc3c(F)ccc(F)c3F)c3n2N1CC3O (stereo not drawn) [Compound 23]
4.9 | CCC1N(C)C(=O)c2c(O)c(=O)c(C(=O)NCc3ccc(F)cc3F)c3n2N1CC3O (stereo not drawn) [Compound 31]
2.1 | CCC1N(C)C(=O)c2c(O)c(=O)c(C(=O)NCc3c(F)cc(F)cc3F)c3n2N1CC3O (stereo not drawn) [Compound 35]
